Data published in US11192880B2, “Quinolone compounds as inhibitors of the BCL6 BTB domain protein-protein interaction and/or as BCL6 degraders” (Ontario Institute for Cancer Research (OICR), priority 2017, dated 2021).

Legend:
[1] = Liver microsomal metabolic stability, human; type: in vitro ADME; conditions: % remaining after 60 minutes, 1 μM compound, 0.5 mg/mL protein
Experimental: (§1) (f) Microsomal Stability Assays
(§2) Liver Microsomal Metabolic Stability
(§3) Working stocks were initially diluted to a concentration of 40.0 μM in 0.1 M potassium phosphate buffer (pH 7.4) before addition to the reaction vials. CD-1 mouse (male) or pooled human liver microsomes (Corning Gentest) were utilized at a final concentration of 0.5 mg/mL (protein). Duplicate wells were used for each time point (0 and 60 minutes). Reactions were carried out at 37° C. in an orbital shaker at 175 rpm, and the final DMSO concentration was kept constant at 0.1%. The final volume for each reaction was 100 μL, which includes the addition of an NADPH-Regeneration Solution (NRS) mix. This NRS mix is comprised of glucose 6-phosphate dehydrogenase, NADP+, MgCl2, and glucose 6-phosphate. Upon completion of the 60 minute time point, reactions were terminated by the addition of 2-volumes (200 μL) of ice-cold, acetonitrile containing 0.5% formic acid and internal standard. Samples were then centrifuged at 4,000 rpm for 10 minutes to remove debris and precipitated protein. Approximately 150 μL of supernatant was subsequently transferred to a new 96 well microplate for LC/MS analysis:
(§4) Narrow-window mass extraction LC-MS analysis was performed for all samples in this study using a Waters Xevo quadrupole time-of-flight (QTof) mass spectrometer to determine relative peak areas of test compounds. The percent remaining values are calculated using the following equations: % remaining=(A)/A0×100
(§5) A is area response after incubation
(§6) A0 is area response at initial time point

[2] = Liver microsomal metabolic stability, mouse; type: in vitro ADME; conditions: % remaining after 60 minutes, 1 μM compound, 0.5 mg/mL protein
Experimental: as §1, §2, §3, §4, §5, §6

[3] = reported; limits its use in animal studies; cited from earlier work
[4] = target: BTB domain of BCL6 / SMRT BBD peptide (Homo sapiens (Human), UniProt P41182); test: BCL6-BTB-SMRT peptide inhibition fluorescence polarization (FP) screen; type: binding; conditions: 1.25 uM BCL6-BTB, 20 nM Bodipy-TMR SMRT peptide probe; lower limit of assay 1 uM
Experimental: (a) BCL6-BTB-SMRT Peptide Inhibition Fluorescence Polarization (FP) Screen
Compounds were dissolved in 100% DMSO at 10 mM, assayed fresh, and then stored at −20° C. for repeat studies and future work. The reaction mixture consists of 1.25 uM of the 25 kd BCL6-BTB domain (Thioredoxin-His6-STag-TEV-biotinylation-thrombin-BCL6 amino acids 1-129) plus 20 nM of the peptide probe Ac-GSLVATVKEAGRSIHEIPA (SEQ ID NO:1) with 16 amino-acids (16-mer peptide) from the SMRT BBD (1414-1429) with a Bodipy-TMR fluorescent label on the lysine. […] 20 ul of this assay mixture was added to each well of the 384 well plates with the exception of the control wells that contained no protein (for setting the minimum FP value). Compounds were directly sprayed using an HP D300 Digital Dispenser from 10 mM DMSO stocks onto black 384 well plates (greiner bio-one #781900) in a concentration range from 1 uM to 500 uM (10 points in duplicate). The assay was equilibrated for 1 hour prior to reading the FP values (Ex 540 nm/Em 580 nm) with a Perkin Elmer Envision plate reader. The results were curve fitted and IC50 values were calculated using the BioAssay software from CambridgeSoft.

BCL6 BTB domain = BCL6 BTB domain (Homo sapiens (Human), UniProt P41182); test: Surface plasmon resonance (SPR) assay; type: binding; conditions: single cycle kinetic analysis, Biacore T200
Experimental: (b) Surface Plasmon Resonance (SPR) Assay
SPR studies were performed using a Biacore™ T200 instrument (GE Health Sciences Inc.). The BCL6 BTB protein used in the FP assay was biotinylated using the site specific biotinylating enzyme BirA, and then cleaved with TEV protease to produce the BCL6 BTB domain (biotin-thrombin-BCL6 amino acids 1-129; 17 kd) that was use in SPR. This protein was stably captured (1000 RU) to streptavidin coupled SA chips (BR-1005-31, GE Health Sciences Inc.) according to the manufacture's protocol. Compounds were dissolved in 100% DMSO at 10 mM and 2-fold serial dilutions were done in 100% DMSO. For SPR analysis the serially titrated compounds were diluted 1/20 into buffer (10 mM HEPES pH7.4, 150 mM NaCl, 0.05% Tween-20, 3 mM EDTA) giving a final concentration of 5% DMSO. The Biacore flow rate was set at 100 ul/min. For KD determinations, single cycle kinetic analysis was performed with an on time of 60 seconds, and an off time of 300 seconds. Curve fitting and KD calculations were done with the Biacore T200 Evaluation software (GE Health Sciences Inc).

[5] = test system: BCL6 reporter construct in SuDHL4-3xBCL6-TK-Luc cells; test: Cell-based BCL6 reporter luciferase assay; conditions: 48 h, two days
Experimental: (c) Cell-Based Luciferase Assay:
A BCL6 reporter construct containing three copies of the consensus BCL6 binding site, the TK promoter, and the firefly luciferase gene was stably expressed in SuDHL4 cells after lentivirus infection and selection with Blasticidin. SuDHL4-3xBCL6-TK-Luc cells were seeded into a Viewplate 384-well assay dish at 15,000 cells/well in 25 ul medium (Alpha-MEM high glucose containing 10% FBS, 25 mM HEPES, […] GlutaMAX, 100 ug/ml Normocin, and […] Gentamycin, Invitrogen). A HP D300 digital dispenser was used to dose cells with DMSO or test compounds across a 10-point range of concentrations (high dose of 10 uM), and cultures were grown in a humidified 5% CO2 incubator at 37° C. After two days, plates were removed from incubator and equilibrated to room temperature. An equal volume of neolite reporter gene assay reagent was added to each well, and samples were processed according to manufacturer's instructions (Perkin Elmer). Luminescent signal was measured using an Envision™ plate reader equipped with a US-Luminescence detector.

Karpas422 cells = test: Tumor cell growth inhibition assay; type: cell-based; conditions: Homo sapiens, KARPAS-422, 144 h, six days, ATPlite, read-out: GI Karpas EC50
Experimental: (d) Tumor Cell Growth Inhibition Assay:
Karpas422 cells were seeded into a 96-well plate at 2,000 cells/well in 150 ul medium (Alpha-MEM containing 10% FBS, […] Normocin, and […] Gentamycin, Invitrogen). A HP D300 digital dispenser was used to dose cells with DMSO or test compounds across a 10-point range of concentrations (high dose of 5 uM), and cultures were grown in a humidified 5% CO2 incubator at 37° C. After six days, plates were removed from incubator and equilibrated to room temperature. An equal volume of ATPlite assay reagent was added to each well, and samples were processed according to manufacturer's instructions (Perkin Elmer). Luminescent signal was measured using an Envision plate reader equipped with a US-Luminescence detector.

For CNC(=O)COc1cc2cc(Nc3nc(N4C[C@H](C)C[C@H](C)C4)ncc3Cl)ccc2n(C)c1=O [BI-3802, reference compound], the “Human Liver Microsomes (HLM, % @ 1 h)” value [1] is given as 25%, the “Mouse Liver Microsomes (MLM, % @ 1 h)” value [2] is given as 13% and the bioavailability [3] is given as “poor bioavailability”.

For CNC(=O)COc1cc2cc(Nc3nc(N4C[C@@H](C)O[C@@H](C)C4)ncc3Cl)ccc2n(C)c1=O [Compound X-2], the IC50 [4] was 1.2 µM, the Kd (BCL6 BTB domain) was 0.0103 µM and the IC50 [5] was 0.0919 µM. The EC50 (Karpas422 cells) was 0.0306 µM, the “Human Liver Microsomes (HLM, % @ 1 h)” value [1] was 74% and the “Mouse Liver Microsomes (MLM, % @ 1 h)” value [2] was 70%.

For CNC(=O)COc1cc2cc(Nc3nc(N4CC5CCC(C4)C5(F)F)ncc3Cl)ccc2n(C)c1=O [Compound X-3], the IC50 [4] was 1.8 µM, the Kd (BCL6 BTB domain) was 0.0157 µM and the IC50 [5] was 0.643 µM. The EC50 (Karpas422 cells) was 0.0378 µM, the “Human Liver Microsomes (HLM, % @ 1 h)” value [1] was 44% and the “Mouse Liver Microsomes (MLM, % @ 1 h)” value [2] was 0.5%.

Work on CNC(=O)COc1cc2cc(Nc3nc(N4C[C@@H](C)N[C@@H](C)C4)ncc3Cl)ccc2n(C)c1=O [Compound X-1, 2-((6-((5-chloro-2-((3S,5R)-3,5-dimethylpiperazin-1-yl)pyrimidin-4-yl)amino)-1-methyl-2-oxo-1,2-dihydroquinolin-3-yl)oxy)-N-methylacetamide] yielded an IC50 [4] of 1.6 µM, a Kd (BCL6 BTB domain) of 0.00573 µM and an IC50 [5] of 0.433 µM. For the same compound, the EC50 (Karpas422 cells) was 0.0926 µM, the “Human Liver Microsomes (HLM, % @ 1 h)” value [1] was 34% and the “Mouse Liver Microsomes (MLM, % @ 1 h)” value [2] was 15%.

With CNC(=O)COc1cc2cc(Nc3nc(N4C[C@@H](C)C(F)(F)[C@@H](C)C4)ncc3Cl)ccc2n(C)c1=O [Ia] the IC50 [4] was 0.9 µM, the Kd (BCL6 BTB domain) was 0.00533 µM and the IC50 [5] was 0.00684 µM. For the same compound, the EC50 (Karpas422 cells) was 0.00336 µM, the “Human Liver Microsomes (HLM, % @ 1 h)” value [1] was 77% and the “Mouse Liver Microsomes (MLM, % @ 1 h)” value [2] was 61%.
